We go through six molecules from ChEMBL document CHEMBL4177767, “Discovery of N2-(4-Amino-cyclohexyl)-9-cyclopentyl- N6-(4-morpholin-4-ylmethyl-phenyl)- 9H-purine-2,6-diamine as a Potent FLT3 Kinase Inhibitor for Acute Myeloid Leukemia with FLT3 Mutations” (J Med Chem, 2018).

SMILES strings stand for the structures.

The target in data set [1] is Receptor-type tyrosine-protein kinase FLT3 (Homo sapiens, UniProt P36888, ITD). Briefly: biochemical. The data set is classed as cell-based, Sf9.
Description: Inhibition of N-terminal GST/His6-fused recombinant human FLT3 (R571 to S993 residues) ITD mutant expressed in Sf9 insect cells using poly (Ala,Glu,Lys,Tyr) 6:2:5:1 hydrobromide as substrate in presence of [gamma-33P]ATP
The next data set relates to MV4-11. Briefly: Growth inhibition of human MV4-11 cells after 72 hrs by calcein AM dye-based fluorescence assay. The format is functional. To be noted: MV4-11, 72 h.
The target in data set [2] is T1, Receptor-type tyrosine-protein kinase FLT3 (Homo sapiens, UniProt P36888).
T1 sequence (P36888 whole entry): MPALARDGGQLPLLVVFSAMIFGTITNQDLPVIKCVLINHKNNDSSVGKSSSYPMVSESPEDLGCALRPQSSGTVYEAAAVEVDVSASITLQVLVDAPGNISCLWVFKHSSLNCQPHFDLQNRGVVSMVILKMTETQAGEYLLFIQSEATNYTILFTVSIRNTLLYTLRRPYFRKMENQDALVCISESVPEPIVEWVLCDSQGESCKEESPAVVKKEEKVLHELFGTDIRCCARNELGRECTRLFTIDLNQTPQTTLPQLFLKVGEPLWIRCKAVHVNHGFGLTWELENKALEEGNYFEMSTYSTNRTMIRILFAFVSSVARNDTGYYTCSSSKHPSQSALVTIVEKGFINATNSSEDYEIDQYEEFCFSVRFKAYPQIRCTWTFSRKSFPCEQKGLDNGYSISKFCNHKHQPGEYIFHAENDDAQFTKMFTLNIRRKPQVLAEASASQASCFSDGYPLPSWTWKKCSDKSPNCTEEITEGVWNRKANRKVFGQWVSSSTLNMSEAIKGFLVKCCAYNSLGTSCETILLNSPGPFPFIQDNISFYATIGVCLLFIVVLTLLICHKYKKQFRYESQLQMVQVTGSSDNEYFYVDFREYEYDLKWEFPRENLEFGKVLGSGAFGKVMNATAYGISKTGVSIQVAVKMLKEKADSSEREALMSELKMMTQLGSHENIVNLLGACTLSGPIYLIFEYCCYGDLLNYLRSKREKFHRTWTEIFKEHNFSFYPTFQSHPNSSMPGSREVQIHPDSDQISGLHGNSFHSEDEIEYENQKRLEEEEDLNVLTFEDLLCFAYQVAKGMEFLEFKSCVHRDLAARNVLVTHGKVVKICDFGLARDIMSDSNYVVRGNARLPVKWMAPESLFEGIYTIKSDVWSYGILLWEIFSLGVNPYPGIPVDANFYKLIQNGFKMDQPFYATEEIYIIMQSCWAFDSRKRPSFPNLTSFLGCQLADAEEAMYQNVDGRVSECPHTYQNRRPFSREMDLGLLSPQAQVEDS
Nature of the data set: biochemical. The data set is classed as cell-based, Sf9.
Description: Inhibition of N-terminal GST/His6-fused recombinant wild type human FLT3 (R571 to S993 residues) expressed in Sf9 insect cells using poly (Ala,Glu,Lys,Tyr) 6:2:5:1 hydrobromide as substrate in presence of [gamma-33P]ATP

Data set [3] addresses Receptor-type tyrosine-protein kinase FLT3 (Homo sapiens, UniProt P36888, D835Y). Nature of the data set: biochemical. The format is cell-based, Sf9.
Description: Inhibition of N-terminal GST/His6-fused recombinant human FLT3 (R571 to S993 residues) D835Y mutant expressed in Sf9 insect cells using poly (Ala,Glu,Lys,Tyr) 6:2:5:1 hydrobromide as substrate in presence of [gamma-33P]ATP
For a further data set, the system named is K562. Briefly: cells. Conditions: Homo sapiens, K562, 72 h.
A further data set concerns MOLM-13. Briefly: cells. To be noted: Homo sapiens, MOLM-13, 72 h.
In a further data set the test system is Kasumi 1. Nature of the data set: cells. To be noted: Homo sapiens, Kasumi 1, 72 h.
The next data set relates to THP-1. Nature of the data set: cells. To be noted: Homo sapiens, THP-1, 72 h.
The subject of a further data set is U-937. Briefly: cells. To be noted: Homo sapiens, U-937, 72 h.
The next data set deals with MCF7. Nature of the data set: cells. Conditions: Homo sapiens, MCF7, 72 h.
A further data set relates to HCC827. Briefly: cells. To be noted: Homo sapiens, HCC827, 72 h.
Data set [4] is described as follows: in vitro. To be noted: human, MRC5 cells.
The nature of data set [5]: in vitro. To be noted: human, HUVEC.
A short description of data set [6]: in vitro. Conditions: human, BJ cells.

On to `N[C@H]1CC[C@H](Nc2nc(Nc3ccc(N4CC5(COC5)C4)cc3)c3ncn(C4CCCC4)c3n2)CC1`, for which the IC50 (as a rule, the point on the concentration scale where inhibition reaches its midpoint) is 4 nM in data set [1], 13 nM in [2] and 28 nM in [3]. Also, the GI50 (as a rule, the concentration giving 50% growth inhibition) in the data set with MV4-11 is 3 nM; in the data set with K562, 1220 nM; in the data set on MOLM-13, 4 nM; in the data set on Kasumi 1, 734 nM; in the data set with THP-1, 693 nM; in the data set on U-937 it was 638 nM. Besides, the GI50 in the data set with MCF7 is 1060 nM; in the data set with HCC827 it was 456 nM. Besides, the 50% growth inhibitory concentration (GI50) at 72 h in “in vitro [4]” was 9800 nM; in the data set “in vitro [5]”, 5950 nM; in the data set “in vitro [6]”, 14600 nM.
On to `N[C@H]1CC[C@H](Nc2nc(Nc3ccc(N4CCOCC4)cc3)c3ncn(C4CCCC4)c3n2)CC1`, for which the IC50 in data set [1] is 2 nM; in data set [2] it was 21 nM; in data set [3], 7 nM. Also, the GI50 was 2 nM in the data set on MV4-11; 965 nM with K562; 4 nM with MOLM-13; 816 nM with Kasumi 1; 1160 nM in the data set with THP-1; 1570 nM with U-937. The results for the 50% growth inhibitory concentration (GI50) in the data set on MCF7 and in the data set with HCC827 were 320 nM and 521 nM, respectively. Further, the results for the GI50 at 72 h in the data set “in vitro [4]”, in the data set “in vitro [5]” and in “in vitro [6]” were 23300 nM, 4530 nM and 12200 nM, respectively.
As for `c1ccc(CNc2nc(Nc3ccc(CN4CCOCC4)cc3)c3ncn(C4CCCC4)c3n2)cc1`, the IC50 is 26 nM in data set [1], 83 nM in data set [2] and 624 nM in data set [3]. The GI50 in the data set on MV4-11 is 196 nM; in the data set with K562 it was 3600 nM; with MOLM-13, 122 nM; with Kasumi 1, 4760 nM; in the data set with THP-1, more than 10000 nM; in the data set with U-937 it was 9790 nM. The concentration for 50% growth inhibition (GI50) is 8600 nM in the data set with MCF7 and more than 5000 nM with HCC827. For the same molecule, the values for the GI50 at 72 h in “in vitro [4]”, in the data set “in vitro [5]” and in the data set “in vitro [6]” were 23900 nM, 10100 nM and more than 25000 nM, respectively.
Regarding `N[C@H]1CC[C@H](Nc2nc(Nc3ccc(Br)cc3)c3ncn(C4CCCC4)c3n2)CC1`, the IC50 in [1] was determined as 4 nM; in [2], 16 nM; in data set [3] it was 4 nM. The 50% growth inhibitory concentration (GI50) in the data set with MV4-11 was 10 nM; in the data set on K562, 670 nM; with MOLM-13, 15 nM; with Kasumi 1, 481 nM; in the data set on THP-1, 2280 nM; with U-937 it was 1800 nM. Further, the GI50 came to 520 nM in the data set on MCF7 and 1280 nM with HCC827. Further, the GI50 at 72 h turned out to be 20600 nM in the data set “in vitro [4]”, 10100 nM in the data set “in vitro [5]” and 14700 nM in the data set “in vitro [6]”.
Regarding `N[C@H]1CC[C@H](Nc2nc(Nc3ccc(N4CCCC4)cc3)c3ncn(C4CCCC4)c3n2)CC1`, the IC50 was determined as 3 nM in data set [1], 21 nM in [2] and 11 nM in data set [3]. For the same molecule, the GI50 in the data set on MV4-11 is 18 nM; in the data set on K562, 940 nM; in the data set on MOLM-13, 24 nM; in the data set with Kasumi 1 it was 569 nM; in the data set with THP-1, 3110 nM; with U-937, 3170 nM. The GI50 in the data set on MCF7 is 487 nM; with HCC827, 1070 nM. Also, the GI50 at 72 h in the data set “in vitro [4]” was 14000 nM; in “in vitro [5]”, 12100 nM; in the data set “in vitro [6]”, 15900 nM.
Regarding `CCN1CCN(c2ccc(Nc3nc(N[C@H]4CC[C@H](N)CC4)nc4c3ncn4C3CCCC3)cc2)CC1`, the IC50 in [1] amounted to 3 nM; in data set [2] it was 10 nM; in data set [3], 2 nM. The 50% growth inhibitory concentration (GI50) is 1 nM in the data set with MV4-11; 2070 nM in the data set on K562; 4 nM in the data set with MOLM-13; 839 nM in the data set on Kasumi 1; 514 nM in the data set on THP-1; 605 nM with U-937. Further, the GI50 with MCF7 was 1050 nM; with HCC827, 592 nM. For the same molecule, the GI50 at 72 h came to 22000 nM in the data set “in vitro [4]”, 4440 nM in “in vitro [5]” and 12900 nM in the data set “in vitro [6]”.
